Among the data in ChEMBL document CHEMBL5291721, “A preclinical secondary pharmacology resource illuminates target-adverse drug reaction associations of marketed drugs” (Nat Commun, 2023) are AC50 values, retold here.

Some targets named below: Histamine H1 receptor (Homo sapiens, UniProt P35367); Melanocortin receptor 3 (Homo sapiens, UniProt P41968); D(3) dopamine receptor (Homo sapiens, UniProt P35462).
The target in series [1] is T1, Type-1 angiotensin II receptor (Homo sapiens, UniProt P30556).
T1 sequence (P30556 whole entry): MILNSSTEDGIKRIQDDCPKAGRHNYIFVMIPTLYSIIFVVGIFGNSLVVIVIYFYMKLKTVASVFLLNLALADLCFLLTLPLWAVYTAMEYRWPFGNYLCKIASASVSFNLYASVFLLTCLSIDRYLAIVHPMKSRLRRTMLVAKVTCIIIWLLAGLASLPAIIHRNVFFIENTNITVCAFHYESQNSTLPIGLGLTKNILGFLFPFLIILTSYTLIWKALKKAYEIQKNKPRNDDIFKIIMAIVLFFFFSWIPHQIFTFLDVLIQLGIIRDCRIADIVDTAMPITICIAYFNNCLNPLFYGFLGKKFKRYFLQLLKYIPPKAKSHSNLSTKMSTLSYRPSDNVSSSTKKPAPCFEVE

The target of series [2] is T2, Muscarinic acetylcholine receptor M2 (Homo sapiens, UniProt P08172).
T2 sequence (P08172 whole entry): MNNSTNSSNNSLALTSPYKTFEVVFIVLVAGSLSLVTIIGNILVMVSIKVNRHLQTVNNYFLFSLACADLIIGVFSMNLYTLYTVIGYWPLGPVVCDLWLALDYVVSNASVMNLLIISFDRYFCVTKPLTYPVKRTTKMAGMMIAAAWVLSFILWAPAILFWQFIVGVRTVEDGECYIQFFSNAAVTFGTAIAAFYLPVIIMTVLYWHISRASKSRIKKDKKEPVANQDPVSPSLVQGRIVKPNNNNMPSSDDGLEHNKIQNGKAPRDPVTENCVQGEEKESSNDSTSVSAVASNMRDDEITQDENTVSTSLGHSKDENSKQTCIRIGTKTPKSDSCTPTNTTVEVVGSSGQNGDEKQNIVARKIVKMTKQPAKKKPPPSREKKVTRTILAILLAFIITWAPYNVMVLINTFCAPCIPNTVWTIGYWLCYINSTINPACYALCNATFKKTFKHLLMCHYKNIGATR
In kind it is functional, cell-based.

For another series, the target named is Cannabinoid receptor 1 (Homo sapiens, UniProt P21554). In kind it is functional, cell-based.
A further series concerns the target D(1A) dopamine receptor (Homo sapiens, UniProt P21728). The series is classed as functional, cell-based.
The target of another series is T3, Endothelin-1 receptor (Homo sapiens, UniProt P25101).
T3 sequence (P25101 whole entry): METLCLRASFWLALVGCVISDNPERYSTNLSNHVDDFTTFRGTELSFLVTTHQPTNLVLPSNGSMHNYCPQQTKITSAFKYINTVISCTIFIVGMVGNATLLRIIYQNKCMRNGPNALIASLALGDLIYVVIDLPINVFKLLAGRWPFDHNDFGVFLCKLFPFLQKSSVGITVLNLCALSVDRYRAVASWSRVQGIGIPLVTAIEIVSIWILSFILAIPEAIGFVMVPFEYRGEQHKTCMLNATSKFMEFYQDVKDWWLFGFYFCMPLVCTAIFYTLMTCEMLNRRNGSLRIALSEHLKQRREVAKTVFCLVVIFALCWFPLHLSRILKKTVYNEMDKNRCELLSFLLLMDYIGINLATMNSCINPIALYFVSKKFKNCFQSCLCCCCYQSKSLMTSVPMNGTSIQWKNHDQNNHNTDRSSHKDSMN

Series [3] has as its target 5-hydroxytryptamine receptor 2A (Homo sapiens, UniProt P28223). In kind it is functional, cell-based.
Series [4] deals with Voltage-gated inwardly rectifying potassium channel KCNH2 (Homo sapiens, UniProt Q12809). The series is classed as functional.
In a further series the target is T4, Glucocorticoid receptor (Homo sapiens, UniProt P04150).
T4 sequence (P04150 whole entry): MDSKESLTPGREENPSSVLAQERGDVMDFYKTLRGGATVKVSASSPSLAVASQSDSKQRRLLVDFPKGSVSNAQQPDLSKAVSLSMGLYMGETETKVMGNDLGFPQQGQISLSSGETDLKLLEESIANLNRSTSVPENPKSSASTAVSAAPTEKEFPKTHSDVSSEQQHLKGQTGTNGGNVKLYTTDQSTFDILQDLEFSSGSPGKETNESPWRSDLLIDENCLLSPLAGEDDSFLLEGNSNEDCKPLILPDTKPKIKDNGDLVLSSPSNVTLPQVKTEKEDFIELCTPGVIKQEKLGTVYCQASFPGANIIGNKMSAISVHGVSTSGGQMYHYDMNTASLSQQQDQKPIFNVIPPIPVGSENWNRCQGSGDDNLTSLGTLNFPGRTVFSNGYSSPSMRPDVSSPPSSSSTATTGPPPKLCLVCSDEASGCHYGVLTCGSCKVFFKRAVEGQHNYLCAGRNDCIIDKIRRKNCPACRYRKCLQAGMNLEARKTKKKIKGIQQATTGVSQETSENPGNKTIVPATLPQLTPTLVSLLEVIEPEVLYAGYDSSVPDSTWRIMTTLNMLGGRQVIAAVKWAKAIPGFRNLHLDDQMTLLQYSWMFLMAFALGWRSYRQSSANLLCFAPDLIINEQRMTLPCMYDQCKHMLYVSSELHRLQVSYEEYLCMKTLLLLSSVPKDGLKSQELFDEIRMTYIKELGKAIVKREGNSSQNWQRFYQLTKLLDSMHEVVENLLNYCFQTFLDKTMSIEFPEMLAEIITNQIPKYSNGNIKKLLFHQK

Series [5] deals with 3',5'-cyclic-AMP phosphodiesterase 4D (Homo sapiens, UniProt Q08499). In kind it is functional.

Bounds are passed on as bounds.
Also: assay procedure not described here.

Chain of 5-hydroxytryptamine receptor 2A (P28223 whole entry): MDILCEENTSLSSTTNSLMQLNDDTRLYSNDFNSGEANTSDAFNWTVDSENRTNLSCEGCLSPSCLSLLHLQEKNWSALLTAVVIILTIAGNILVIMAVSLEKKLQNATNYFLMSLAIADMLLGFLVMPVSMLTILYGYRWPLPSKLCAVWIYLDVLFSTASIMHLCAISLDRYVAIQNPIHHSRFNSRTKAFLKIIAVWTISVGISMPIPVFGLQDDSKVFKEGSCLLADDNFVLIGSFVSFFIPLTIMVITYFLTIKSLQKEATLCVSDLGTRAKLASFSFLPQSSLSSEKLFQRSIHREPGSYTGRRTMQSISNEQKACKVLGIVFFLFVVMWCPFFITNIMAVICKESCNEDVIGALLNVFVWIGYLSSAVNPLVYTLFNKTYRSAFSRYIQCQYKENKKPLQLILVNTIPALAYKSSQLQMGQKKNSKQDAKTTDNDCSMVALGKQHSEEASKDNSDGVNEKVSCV
Chain of 3',5'-cyclic-AMP phosphodiesterase 4D (Q08499 whole entry): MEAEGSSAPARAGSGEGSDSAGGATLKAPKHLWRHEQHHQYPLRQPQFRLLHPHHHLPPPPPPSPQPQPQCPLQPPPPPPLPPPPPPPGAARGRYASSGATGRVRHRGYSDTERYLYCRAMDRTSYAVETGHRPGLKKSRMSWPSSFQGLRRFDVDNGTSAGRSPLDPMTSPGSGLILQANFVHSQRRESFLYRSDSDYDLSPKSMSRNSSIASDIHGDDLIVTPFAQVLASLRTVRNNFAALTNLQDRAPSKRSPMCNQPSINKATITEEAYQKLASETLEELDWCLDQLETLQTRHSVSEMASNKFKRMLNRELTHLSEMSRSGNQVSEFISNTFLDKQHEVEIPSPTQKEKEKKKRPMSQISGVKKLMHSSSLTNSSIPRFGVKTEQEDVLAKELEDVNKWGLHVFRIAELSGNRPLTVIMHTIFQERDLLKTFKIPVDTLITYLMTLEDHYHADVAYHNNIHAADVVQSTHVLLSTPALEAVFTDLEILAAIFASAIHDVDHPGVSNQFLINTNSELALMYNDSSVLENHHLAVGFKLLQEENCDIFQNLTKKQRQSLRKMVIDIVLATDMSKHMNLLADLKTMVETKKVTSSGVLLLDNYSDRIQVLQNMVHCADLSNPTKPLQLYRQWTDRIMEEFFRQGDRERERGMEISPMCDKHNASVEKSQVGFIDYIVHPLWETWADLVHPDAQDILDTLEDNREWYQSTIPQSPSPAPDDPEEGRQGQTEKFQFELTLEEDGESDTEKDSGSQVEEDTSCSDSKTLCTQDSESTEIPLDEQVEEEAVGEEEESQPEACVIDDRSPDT
Chain of Melanocortin receptor 3 (P41968 whole entry): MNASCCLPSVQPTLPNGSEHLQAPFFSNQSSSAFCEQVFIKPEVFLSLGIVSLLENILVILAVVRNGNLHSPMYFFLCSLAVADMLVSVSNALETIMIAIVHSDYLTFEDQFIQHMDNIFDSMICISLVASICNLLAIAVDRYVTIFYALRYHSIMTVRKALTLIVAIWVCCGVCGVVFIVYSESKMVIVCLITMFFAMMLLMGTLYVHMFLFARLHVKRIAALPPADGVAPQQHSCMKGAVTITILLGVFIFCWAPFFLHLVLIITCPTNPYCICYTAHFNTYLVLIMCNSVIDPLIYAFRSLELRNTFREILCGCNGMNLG
Chain of D(1A) dopamine receptor (P21728 whole entry): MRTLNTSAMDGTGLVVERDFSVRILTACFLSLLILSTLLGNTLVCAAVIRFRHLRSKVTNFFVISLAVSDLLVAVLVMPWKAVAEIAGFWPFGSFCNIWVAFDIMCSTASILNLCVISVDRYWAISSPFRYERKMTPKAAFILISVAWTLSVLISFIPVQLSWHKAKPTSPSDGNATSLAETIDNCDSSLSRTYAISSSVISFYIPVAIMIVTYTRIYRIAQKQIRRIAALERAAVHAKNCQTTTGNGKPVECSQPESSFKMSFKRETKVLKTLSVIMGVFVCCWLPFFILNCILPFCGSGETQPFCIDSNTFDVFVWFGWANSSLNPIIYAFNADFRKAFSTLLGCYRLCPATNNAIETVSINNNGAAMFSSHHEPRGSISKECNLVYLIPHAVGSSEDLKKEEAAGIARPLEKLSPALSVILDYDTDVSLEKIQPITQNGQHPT
Chain of Voltage-gated inwardly rectifying potassium channel KCNH2 (Q12809 whole entry): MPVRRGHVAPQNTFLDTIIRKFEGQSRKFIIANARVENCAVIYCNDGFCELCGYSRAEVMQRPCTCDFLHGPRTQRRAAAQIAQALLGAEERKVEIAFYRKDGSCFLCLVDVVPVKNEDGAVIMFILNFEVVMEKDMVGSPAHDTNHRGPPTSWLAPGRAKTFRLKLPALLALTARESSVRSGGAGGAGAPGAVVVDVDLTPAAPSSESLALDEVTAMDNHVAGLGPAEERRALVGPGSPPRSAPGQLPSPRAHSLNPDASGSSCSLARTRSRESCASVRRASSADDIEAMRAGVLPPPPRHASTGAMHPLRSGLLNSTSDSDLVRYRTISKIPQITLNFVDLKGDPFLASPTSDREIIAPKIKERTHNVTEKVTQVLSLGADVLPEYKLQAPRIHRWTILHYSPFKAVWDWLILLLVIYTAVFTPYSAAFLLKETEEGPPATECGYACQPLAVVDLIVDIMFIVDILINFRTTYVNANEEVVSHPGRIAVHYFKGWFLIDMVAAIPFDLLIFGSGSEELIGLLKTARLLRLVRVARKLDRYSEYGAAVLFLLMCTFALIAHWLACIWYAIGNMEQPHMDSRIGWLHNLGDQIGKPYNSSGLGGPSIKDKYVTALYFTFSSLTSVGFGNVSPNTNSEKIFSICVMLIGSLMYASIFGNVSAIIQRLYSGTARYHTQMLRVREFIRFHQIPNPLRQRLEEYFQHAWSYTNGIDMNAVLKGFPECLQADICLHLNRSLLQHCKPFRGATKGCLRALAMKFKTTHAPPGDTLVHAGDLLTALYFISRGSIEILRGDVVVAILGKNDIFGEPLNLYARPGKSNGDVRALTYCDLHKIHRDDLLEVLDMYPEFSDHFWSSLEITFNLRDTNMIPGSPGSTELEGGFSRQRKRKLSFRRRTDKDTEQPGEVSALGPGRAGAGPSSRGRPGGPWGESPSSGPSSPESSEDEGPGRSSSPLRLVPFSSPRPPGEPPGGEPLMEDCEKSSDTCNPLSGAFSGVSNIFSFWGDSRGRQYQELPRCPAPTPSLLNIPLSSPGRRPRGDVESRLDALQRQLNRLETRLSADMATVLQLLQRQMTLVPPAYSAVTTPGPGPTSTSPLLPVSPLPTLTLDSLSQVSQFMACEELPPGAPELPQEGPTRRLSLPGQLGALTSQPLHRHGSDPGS
Chain of Histamine H1 receptor (P35367 whole entry): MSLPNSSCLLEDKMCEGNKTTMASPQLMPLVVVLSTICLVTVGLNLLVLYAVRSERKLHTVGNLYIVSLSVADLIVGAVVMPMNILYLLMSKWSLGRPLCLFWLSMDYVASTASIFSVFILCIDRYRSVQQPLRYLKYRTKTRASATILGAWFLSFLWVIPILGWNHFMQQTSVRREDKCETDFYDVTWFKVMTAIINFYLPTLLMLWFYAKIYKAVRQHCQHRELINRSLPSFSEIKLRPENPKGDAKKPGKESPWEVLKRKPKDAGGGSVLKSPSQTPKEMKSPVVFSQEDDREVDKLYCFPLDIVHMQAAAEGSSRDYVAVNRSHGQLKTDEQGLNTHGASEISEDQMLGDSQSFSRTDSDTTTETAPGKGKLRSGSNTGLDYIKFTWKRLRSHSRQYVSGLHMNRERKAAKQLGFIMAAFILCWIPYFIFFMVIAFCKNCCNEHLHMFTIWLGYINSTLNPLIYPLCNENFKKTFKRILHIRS
Chain of Cannabinoid receptor 1 (P21554 whole entry): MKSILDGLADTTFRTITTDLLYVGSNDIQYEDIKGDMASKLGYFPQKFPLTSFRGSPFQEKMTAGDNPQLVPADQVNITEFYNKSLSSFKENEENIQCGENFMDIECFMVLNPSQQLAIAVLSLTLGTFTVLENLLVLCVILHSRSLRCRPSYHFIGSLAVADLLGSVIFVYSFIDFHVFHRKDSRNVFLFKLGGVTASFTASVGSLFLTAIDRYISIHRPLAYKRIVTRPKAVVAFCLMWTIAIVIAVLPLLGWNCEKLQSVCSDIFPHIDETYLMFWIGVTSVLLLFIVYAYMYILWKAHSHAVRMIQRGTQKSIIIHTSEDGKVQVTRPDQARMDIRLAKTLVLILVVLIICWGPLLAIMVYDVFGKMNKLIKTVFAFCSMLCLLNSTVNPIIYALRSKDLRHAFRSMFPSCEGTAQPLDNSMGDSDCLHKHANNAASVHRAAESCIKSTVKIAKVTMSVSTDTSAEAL
Chain of D(3) dopamine receptor (P35462 whole entry): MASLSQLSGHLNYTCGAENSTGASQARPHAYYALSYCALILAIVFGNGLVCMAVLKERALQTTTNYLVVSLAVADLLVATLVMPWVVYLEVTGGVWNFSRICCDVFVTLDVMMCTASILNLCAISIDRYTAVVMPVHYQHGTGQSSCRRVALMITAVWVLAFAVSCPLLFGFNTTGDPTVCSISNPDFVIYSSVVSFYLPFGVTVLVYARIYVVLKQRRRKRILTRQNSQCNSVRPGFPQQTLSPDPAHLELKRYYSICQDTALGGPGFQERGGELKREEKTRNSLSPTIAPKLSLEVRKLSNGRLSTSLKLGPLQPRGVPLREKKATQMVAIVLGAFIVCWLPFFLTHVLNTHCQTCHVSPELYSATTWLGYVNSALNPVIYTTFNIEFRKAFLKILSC

Turning to TOCOFERSOLAN, the AC50 (in series [1]; in series [2]; on Cannabinoid receptor 1; on D(1A) dopamine receptor; on Endothelin-1 receptor; at Histamine H1 receptor) was > 30 µM each time. In addition, the AC50 in series [3] was > 30 µM; in [4] (human, cellular components), > 30 µM; at Melanocortin receptor 3 it was > 30 µM; on Glucocorticoid receptor, > 30 µM; in series [5], > 10 µM; at D(3) dopamine receptor, > 30 µM.

Regarding `O=C(C[S+]([O-])C(c1ccccc1)c1ccccc1)NO` (configuration not stated), the AC50 (in series [1]; in series [2]; on Cannabinoid receptor 1; on D(1A) dopamine receptor; on Endothelin-1 receptor; at Histamine H1 receptor) was > 30 µM in each case. For the same molecule, the half-maximal activity concentration (AC50) was > 30 µM in series [3]; > 30 µM in series [4] (read-out: AC50); > 30 µM at Melanocortin receptor 3; > 30 µM at Glucocorticoid receptor; 8.9 µM in series [5]; > 30 µM at D(3) dopamine receptor.

On to `CCCCCCCCOc1ccccc1C(=O)Nc1ccc(C(=O)OCC[N+](C)(CC)CC)cc1` [OTILONIUM BROMIDE], for which the AC50 was 20 µM in [1]; > 30 µM at Cannabinoid receptor 1; > 30 µM at D(1A) dopamine receptor; > 1 µM on Endothelin-1 receptor; 19 µM on Histamine H1 receptor; > 30 µM in [3]. Also, the AC50 was found to be 0.66 µM in [4] (read-out: AC50); 5.1 µM at Melanocortin receptor 3; 11 µM at Glucocorticoid receptor; 2.5 µM in series [5]; 2 µM on D(3) dopamine receptor.

For `O=C1NCCN1CCN1CCC(c2cn(-c3ccc(F)cc3)c3ccc(Cl)cc23)CC1` [SERTINDOLE], the AC50 in series [1] is > 30 µM; in [2], > 10 µM; on Cannabinoid receptor 1 it was > 30 µM; on D(1A) dopamine receptor, > 30 µM; on Endothelin-1 receptor, > 30 µM; on Melanocortin receptor 3, 12 µM. In series [5], this molecule registered an AC50 of 20 µM.

Take `CCCCCCCCCCCC[N+](C)(C)CCOc1ccccc1` [DOMIPHEN]: the half-maximal activity concentration (AC50) in [1] was 14 µM; on Cannabinoid receptor 1 it was > 30 µM; at D(1A) dopamine receptor, > 30 µM; on Endothelin-1 receptor, > 30 µM; at Histamine H1 receptor it was 12 µM; in series [3], > 30 µM. In addition, the AC50 in series [4] (read-out: AC50) worked out at 1.7 µM; at Glucocorticoid receptor, 18 µM; in [5], 12 µM; at D(3) dopamine receptor, 2.1 µM.

In the case of `COc1ccc(C(=O)NCc2ccc(OCCN(C)C)cc2)cc1OC` [ITOPRIDE], the AC50 (in series [1]; in [2]; at Cannabinoid receptor 1; on D(1A) dopamine receptor; on Endothelin-1 receptor; on Histamine H1 receptor) was > 30 µM in each case. Also, the AC50 is > 30 µM in series [3]; > 30 µM in [4] (read-out: AC50); > 30 µM at Melanocortin receptor 3; > 30 µM at Glucocorticoid receptor; > 30 µM in series [5]; 20 µM on D(3) dopamine receptor.

Take `Cc1c(O)c(=O)ccn1C` [DEFERIPRONE]: the AC50 (in [1]; in series [2]; on Cannabinoid receptor 1; on D(1A) dopamine receptor; at Endothelin-1 receptor; in [4] (read-out: AC50)) was > 30 µM each time. Also, the AC50 (at Melanocortin receptor 3; at Glucocorticoid receptor; in series [5]; on D(3) dopamine receptor) was > 30 µM in each case.

Turning to `COc1ccc2c(c1)c(CC(=O)OCC(=O)O)c(C)n2C(=O)c1ccc(Cl)cc1` [ACEMETACIN], the AC50 (in series [1]; in series [2]; at Cannabinoid receptor 1; at D(1A) dopamine receptor; on Endothelin-1 receptor; in [4] (read-out: AC50)) was > 30 µM in each case. For the same molecule, the AC50 (on Melanocortin receptor 3; at Glucocorticoid receptor; in [5]; on D(3) dopamine receptor) was > 30 µM throughout.

With `CCCCN1CCCCC1C(=O)Nc1c(C)cccc1C` (configuration not stated) [BUPIVACAINE], the AC50 in [1] was > 30 µM; in [2], > 30 µM; on Cannabinoid receptor 1 it was > 30 µM; on D(1A) dopamine receptor it was > 30 µM; at Endothelin-1 receptor it was > 30 µM; in series [4] (read-out: AC50), 11 µM. In addition, the AC50 (on Melanocortin receptor 3; in series [5]; on D(3) dopamine receptor) was > 30 µM throughout.

For the molecule `Cc1cc2c(OCC(CNC(C)(C)C)OC(=O)c3ccccc3)cccc2[nH]1` (configuration not stated) [BOPINDOLOL], the AC50 is > 30 µM in series [1]; > 30 µM in series [2]; > 30 µM on Cannabinoid receptor 1; > 30 µM at D(1A) dopamine receptor; > 30 µM at Endothelin-1 receptor; 0.49 µM in series [4] (read-out: AC50). Besides, the AC50 (at Melanocortin receptor 3; at Glucocorticoid receptor; in series [5]; on D(3) dopamine receptor) was > 30 µM each time.

As for `CC(C)(Oc1ccc(C2CC2(Cl)Cl)cc1)C(=O)O` (configuration not stated) [CIPROFIBRATE], the AC50 (in series [1]; in series [2]; at Cannabinoid receptor 1; on D(1A) dopamine receptor; on Endothelin-1 receptor; in series [4] (read-out: AC50)) was > 30 µM in each case. Also, the AC50 (on Melanocortin receptor 3; on Glucocorticoid receptor; in series [5]; on D(3) dopamine receptor) was > 30 µM each time.

For `COC(=O)[C@H]1[C@@H](OC(=O)c2ccccc2)C[C@@H]2CC[C@H]1N2C` [COCAINE], the AC50 (in series [1]; in series [2]; at Cannabinoid receptor 1; at D(1A) dopamine receptor; at Endothelin-1 receptor; on Histamine H1 receptor) was > 30 µM in each case. The AC50 (in series [3]; at Melanocortin receptor 3; in [5]; on D(3) dopamine receptor) was > 30 µM in each case.

Turning to `CN1C(=O)COc2c(C(=O)NC3CN4CCC3CC4)cc(Cl)cc21` (configuration not stated) [AZASETRON], the AC50 in [1] was > 30 µM; in series [2], > 30 µM; on Cannabinoid receptor 1, > 30 µM; at D(1A) dopamine receptor it was > 30 µM; at Endothelin-1 receptor it was > 30 µM; in [4] (read-out: AC50) it was 8.5 µM. Further, the AC50 at Melanocortin receptor 3 is > 30 µM; in [5], 4.1 µM; on D(3) dopamine receptor, > 30 µM.
